pIC50, pKi: −log10 of the molar value. “And” between values parts separate entries of the source, which are not always exact repeats. Identical values can stand only once.
Experiments:
5-HT2A [1] = molecular target: T1, 5-HT2A (Homo sapiens (Human), UniProt P28223); assay: HTRF IP-One antagonist assay, 5-HT2A; assay type: cell-based; conditions: HEK293 cells stably expressing receptor, inositol phosphate accumulation, 80 nM 5-HT in Assay Buffer;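 further: clonal line with low receptor density (about 50–70 fmol/mg), 10-point dose-response from 10 µM in 5-fold steps, HTRF detection after 1 hr, triplicate points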
5-HT2A [2] = molecular target: T1, 5-HT2A; assay: Radioligand binding assay, [^3H]5-HT competition, 5-HT2A; conditions: [^3H]5-HT radioligand, membranes of HEK293 cells expressing recombinant 5-HT2A; Ki from IC50 by Cheng-Prusoff; read-out: 5-HT2A serotonin binding Ki value
5-HT2B = 5-HT2B (Homo sapiens (Human), UniProt P41595); assay: HTRF IP-One antagonist assay, 5-HT2B; assay type: cell-based; conditions: HEK293 cells stably expressing receptor, inositol phosphate accumulation, 80 nM 5-HT in Assay Buffer;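 further: clonal HEK293 line with low 5-HT2B expression (estimated 150-200 fmol/mg by radioligand binding), IP-One HTRF readout, 10-point curves from 10 µM in 5-fold steps, triplicate points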
5-HT2C = 5-HT2C (Homo sapiens (Human), UniProt P28335); assay: HTRF IP-One antagonist assay, 5-HT2C; assay type: cell-based; conditions: HEK293 cells stably expressing receptor, inositol phosphate accumulation, 80 nM 5-HT in Assay Buffer;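 further: clonal HEK293 line with low 5-HT2C density (10–20 fmol/mg), HTRF detection of IP-One, 10-point dose curves from 10 µM in 5-fold steps, triplicate points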
5-HT2C, sequence (P28335 33-458): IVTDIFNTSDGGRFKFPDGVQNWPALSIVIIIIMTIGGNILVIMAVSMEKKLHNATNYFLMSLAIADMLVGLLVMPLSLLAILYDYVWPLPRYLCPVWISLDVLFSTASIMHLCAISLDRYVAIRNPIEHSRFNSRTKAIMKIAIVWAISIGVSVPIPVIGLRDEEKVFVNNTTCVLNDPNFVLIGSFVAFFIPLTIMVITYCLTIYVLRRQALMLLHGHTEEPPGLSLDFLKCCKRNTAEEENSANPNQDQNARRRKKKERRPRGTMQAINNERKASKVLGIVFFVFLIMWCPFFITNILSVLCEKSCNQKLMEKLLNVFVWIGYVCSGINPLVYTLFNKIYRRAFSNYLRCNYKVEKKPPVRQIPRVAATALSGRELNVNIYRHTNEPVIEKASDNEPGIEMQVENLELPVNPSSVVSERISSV

5-HT2B, sequence (P41595 whole entry): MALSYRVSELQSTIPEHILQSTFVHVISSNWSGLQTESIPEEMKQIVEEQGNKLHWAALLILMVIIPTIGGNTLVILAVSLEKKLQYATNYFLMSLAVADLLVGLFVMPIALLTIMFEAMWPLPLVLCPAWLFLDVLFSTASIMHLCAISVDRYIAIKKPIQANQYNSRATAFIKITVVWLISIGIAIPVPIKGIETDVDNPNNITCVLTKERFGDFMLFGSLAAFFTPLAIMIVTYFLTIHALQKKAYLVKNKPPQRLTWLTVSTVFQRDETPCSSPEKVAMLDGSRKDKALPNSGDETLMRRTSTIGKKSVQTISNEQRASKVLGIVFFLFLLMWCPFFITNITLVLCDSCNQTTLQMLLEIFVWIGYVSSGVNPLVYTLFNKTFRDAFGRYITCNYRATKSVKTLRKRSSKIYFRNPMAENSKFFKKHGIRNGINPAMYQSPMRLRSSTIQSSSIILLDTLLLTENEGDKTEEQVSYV
T1 sequence (P28223 whole entry): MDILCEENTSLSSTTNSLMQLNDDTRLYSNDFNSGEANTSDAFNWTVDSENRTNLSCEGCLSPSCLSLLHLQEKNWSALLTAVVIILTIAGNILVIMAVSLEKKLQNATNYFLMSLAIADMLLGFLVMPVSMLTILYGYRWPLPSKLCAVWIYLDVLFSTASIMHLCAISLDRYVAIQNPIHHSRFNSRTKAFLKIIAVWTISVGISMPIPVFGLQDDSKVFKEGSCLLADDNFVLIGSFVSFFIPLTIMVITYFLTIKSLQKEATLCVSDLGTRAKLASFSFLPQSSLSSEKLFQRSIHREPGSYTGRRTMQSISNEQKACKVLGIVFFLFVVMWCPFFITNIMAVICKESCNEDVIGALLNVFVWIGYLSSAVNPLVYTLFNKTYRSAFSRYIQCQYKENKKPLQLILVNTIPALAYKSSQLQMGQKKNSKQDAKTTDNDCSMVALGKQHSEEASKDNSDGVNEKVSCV

## Cc1ncnc(C)c1-c1cc(NC(=O)Cc2cncs2)ccc1OCCN1CCCC1 [Compound 247, N-[3-(4,6-dimethylpyrimidin-5-yl)-4-(2-pyrrolidin-1-ylethoxy)phenyl]-2-thiazol-5-yl-acetamide]
5-HT2A [1]
  pIC50: 7.97
5-HT2A [2]
  pKi: 8.35
5-HT2B
  pIC50: 4.00
5-HT2C
  pIC50: 4.00

## CO[C@@H]1CCN(CCOc2ccc(NC(=O)C3CC3)cc2-c2c(C)ncnc2C)C1 [Compound 353, (R)—N-(3-(4,6-dimethylpyrimidin-5-yl)-4-(2-(3-methoxypyrrolidin-1-yl)ethoxy)phenyl)cyclopropanecarboxamide]
5-HT2A [1]
  pIC50: 7.61
5-HT2A [2]
  pKi: 8.39
5-HT2B
  pIC50: 4.00
5-HT2C
  pIC50: 4.00

## COCCNCCOc1ccc(NC(=O)C2(F)CC2)cc1-c1c(C)ncnc1C [Compound 453, N-(3-(4,6-dimethylpyrimidin-5-yl)-4-(2-((2-methoxyethyl)amino)ethoxy)phenyl)-1-fluorocyclopropane-1-carboxamide]
5-HT2A [1]
  pIC50: 8.32
5-HT2A [2]
  pKi: 8.32
5-HT2B
  pIC50: 4.00
5-HT2C
  pIC50: 4.00

## COC1CCN(CCOc2ccc(NC(=O)C3CC3)cc2-c2c(C)ncnc2C)CC1 [Compound 351, N-(3-(4,6-dimethylpyrimidin-5-yl)-4-(2-(4-methoxypiperidin-1-yl)ethoxy)phenyl)cyclopropanecarboxamide]
5-HT2A [1]
  pIC50: 8.15
5-HT2A [2]
  pKi: 8.34
5-HT2B
  pIC50: 4.00
5-HT2C
  pIC50: 4.00

## CCOC1CC1C(=O)Nc1ccc(OC[C@H]2CCCCN2)c(-c2c(C)ncnc2C)c1 (stereo partly drawn) [Compound 447, N-(3-(4,6-dimethylpyrimidin-5-yl)-4-(((R)-piperidin-2-yl)methoxy)phenyl)-2-ethoxycyclopropane-1-carboxamide]
5-HT2A [1]
  pIC50: 8.04
5-HT2A [2]
  pKi: 8.15 and 7.71
5-HT2B
  pIC50: 4.00
5-HT2C
  pIC50: 4.00

## Cc1ncnc(C)c1-c1cc(NC(=O)c2ccnn2C)ccc1OCCN1CCC1 [Compound 304, N-[4-[2-(azetidin-1-yl)ethoxy]-3-(4,6-dimethylpyrimidin-5-yl)phenyl]-2-methyl-pyrazole-3-carboxamide]
5-HT2A [1]
  pIC50: 8.05
5-HT2A [2]
  pKi: 8.14
5-HT2B
  pIC50: 4.00
5-HT2C
  pIC50: 4.00

## COc1ccc(C(=O)Nc2ccc(OCCN3CCC3)c(-c3c(C)ncnc3C)c2)cc1 [Compound 318, N-(4-(2-(azetidin-1-yl)ethoxy)-3-(4,6-dimethylpyrimidin-5-yl)phenyl)-4-methoxybenzamide]
5-HT2A [1]
  pIC50: 7.77
5-HT2A [2]
  pKi: 8.39
5-HT2B
  pIC50: 5.35
5-HT2C
  pIC50: 4.00

## Cc1ncnc(C)c1-c1cc(NC(=O)C2CC2)ccc1OCCN1CCCC1 [Compound 245, N-[3-(4,6-dimethylpyrimidin-5-yl)-4-(2-pyrrolidin-1-ylethoxy)phenyl]cyclopropanecarboxamide]
5-HT2A [1]
  pIC50: 8.02
5-HT2A [2]
  pKi: 8.37
5-HT2B
  pIC50: 4.00
5-HT2C
  pIC50: 4.00

## Cc1ncnc(C)c1-c1cc(NC(=O)C2(F)CC2)ccc1OCCN1CCC1 [Compound 305, N-(4-(2-(azetidin-1-yl)ethoxy)-3-(4,6-dimethylpyrimidin-5-yl)phenyl)-1-fluorocyclopropane-1-carboxamide]
5-HT2A [1]
  pIC50: 8.35
5-HT2A [2]
  pKi: 8.58
5-HT2B
  pIC50: 4.00
5-HT2C
  pIC50: 4.00

## Cc1ncc(CC(=O)Nc2ccc(OCCN3CCCC3)c(-c3c(C)ncnc3C)c2)s1 [Compound 266, N-(3-(4,6-dimethylpyrimidin-5-yl)-4-(2-(pyrrolidin-1-yl)ethoxy)phenyl)-2-(2-methylthiazol-5-yl)acetamide]
5-HT2A [1]
  pIC50: 8.28
5-HT2A [2]
  pKi: 8.39
5-HT2B
  pIC50: 4.00
5-HT2C
  pIC50: 4.00

## Cc1ncnc(C)c1-c1cc(NC(=O)Cc2ccn(C)c2)ccc1OCCN1CCCC1 [Compound 268, N-[3-(4,6-dimethylpyrimidin-5-yl)-4-(2-pyrrolidin-1-ylethoxy)phenyl]-2-(1-methylpyrrol-3-yl)acetamide]
5-HT2A [1]
  pIC50: 7.20
5-HT2A [2]
  pKi: 8.11
5-HT2B
  pIC50: 4.00
5-HT2C
  pIC50: 4.00

## Cc1ncnc(C)c1-c1cc(NC(=O)CCc2cncs2)ccc1OCCN1CCCC1 [Compound 257, N-(3-(4,6-dimethylpyrimidin-5-yl)-4-(2-(pyrrolidin-1-yl)ethoxy)phenyl)-3-(thiazol-5-yl)propanamide]
5-HT2A [1]
  pIC50: 7.47
5-HT2A [2]
  pKi: 7.83
5-HT2B
  pIC50: 4.00
5-HT2C
  pIC50: 4.00

## Cc1ncnc(C)c1-c1cc(NC(=O)C2(F)CCC2)ccc1OC[C@H]1CCCCN1 [Compound 444, (R)—N-(3-(4,6-dimethylpyrimidin-5-yl)-4-(piperidin-2-ylmethoxy)phenyl)-1-fluorocyclobutane-1-carboxamide]
5-HT2A [1]
  pIC50: 7.93
5-HT2A [2]
  pKi: 8.31
5-HT2B
  pIC50: 4.00
5-HT2C
  pIC50: 4.00

## Cc1ncnc(C)c1-c1cc(NC(=O)c2cccc(C#N)c2)ccc1OCCN1CCC1 [Compound 325, N-(4-(2-(azetidin-1-yl)ethoxy)-3-(4,6-dimethylpyrimidin-5-yl)phenyl)-3-cyanobenzamide]
5-HT2A [1]
  pIC50: 8.07
5-HT2A [2]
  pKi: 8.77
5-HT2B
  pIC50: 5.54
5-HT2C
  pIC50: 4.00

## Cc1ncnc(C)c1-c1cc(NC(=O)CCc2nccs2)ccc1OCCN1CCCC1 [Compound 256, N-(3-(4,6-dimethylpyrimidin-5-yl)-4-(2-(pyrrolidin-1-yl)ethoxy)phenyl)-3-(thiazol-2-yl)propanamide]
5-HT2A [1]
  pIC50: 7.25
5-HT2A [2]
  pKi: 8.00
5-HT2B
  pIC50: 4.00
5-HT2C
  pIC50: 4.00

## Cc1ncnc(C)c1-c1cc(NC(=O)C2(F)CC2)ccc1OC1CNC1 [Compound 398, N-(4-(azetidin-3-yloxy)-3-(4,6-dimethylpyrimidin-5-yl)phenyl)-1-fluorocyclopropane-1-carboxamide]
5-HT2A [1]
  pIC50: 7.47
5-HT2A [2]
  pKi: 8.20
5-HT2B
  pIC50: 4.00
5-HT2C
  pIC50: 4.00

## Cc1ncnc(C)c1-c1cc(NC(=O)C2C3COCC32)ccc1OCCN1CCCC1 (stereo not drawn) [Compound 232, N-(3-(4,6-dimethylpyrimidin-5-yl)-4-(2-(pyrrolidin-1-yl)ethoxy)phenyl)-3-oxabicyclo[3.1.0]hexane-6-carboxamide]
5-HT2A [1]
  pIC50: 6.85
5-HT2A [2]
  pKi: 7.61
5-HT2B
  pIC50: 4.00
5-HT2C
  pIC50: 4.00

## Cc1ncnc(C)c1-c1cc(NC(=O)c2ccccc2)ccc1OCCN1CCC1 [Compound 308, N-(4-(2-(azetidin-1-yl)ethoxy)-3-(4,6-dimethylpyrimidin-5-yl)phenyl)benzamide]
5-HT2A [1]
  pIC50: 7.83
5-HT2A [2]
  pKi: 8.48
5-HT2B
  pIC50: 4.00
5-HT2C
  pIC50: 4.00

## Cc1ncnc(C)c1-c1cc(NC(=O)Cn2cccc2)ccc1OCCN1CCCC1 [Compound 243, N-[3-(4,6-dimethylpyrimidin-5-yl)-4-(2-pyrrolidin-1-ylethoxy)phenyl]-2-pyrrol-1-yl-acetamide]
5-HT2A [1]
  pIC50: 7.83
5-HT2A [2]
  pKi: 8.07
5-HT2B
  pIC50: 4.00
5-HT2C
  pIC50: 4.00

## Cc1ncnc(C)c1-c1cc(NC(=O)C2(F)CC2)ccc1OC[C@H]1CCCCN1 [Compound 438, N-[3-(4,6-dimethylpyrimidin-5-yl)-4-[[(2R)-2-piperidyl]methoxy]phenyl]-1-fluoro-cyclopropanecarboxamide]
5-HT2A [1]
  pIC50: 7.79
5-HT2A [2]
  pKi: 8.04
5-HT2B
  pIC50: 4.00
5-HT2C
  pIC50: 4.00

## Cc1ncnc(C)c1-c1cc(NC(=O)c2c(F)cnn2C)ccc1OCCN1CCCC1 [Compound 290, N-[3-(4,6-dimethylpyrimidin-5-yl)-4-(2-pyrrolidin-1-ylethoxy)phenyl]-4-fluoro-2-methyl-pyrazole-3-carboxamide]
5-HT2A [1]
  pIC50: 8.13
5-HT2A [2]
  pKi: 8.41
5-HT2B
  pIC50: 4.00
5-HT2C
  pIC50: 4.00
